From patent US6541491B1, “4-mercaptopyrrolidine derivatives as farnesyl transferase inhibitors” (Zeneca Limited, priority 1995, dated 2003)
Counter-ions that a name gives are not always drawn.

Legend:
[1] = target: T1, Farnesyl protein transferase (FPT) (Homo sapiens, UniProt P49354+P49356); assay: Farnesyl protein transferase (FPT) inhibition, tritiated farnesyl pyrophosphate incorporation into ras-CVIM; format: biochemical; conditions: FPT partially purified from human placenta; 300 nM tritiated farnesyl pyrophosphate, 120 nM ras-CVIM, 20 minutes at 37°
T1 construct: partially purified from human placenta by ammonium sulphate fractionation; from tissue; host or cells: human placenta
Experimental: Biological activity was tested as follows. Farnesyl protein transferase (FPT) was partially purified from human placenta by ammonium sulphate fractionation followed by a single Q-Sepharose® (Pharmacia. Inc) anion exchange chromatography essentially as described by Ray and Lopez-Belmonte (Ray K P and Lopez-Belmonte J (1992) Biochemical Society Transations 20 494-497). The substrate for FPT was Kras (CVIM C-terminal sequence). The cDNA for oncogenic val 12 variant of human c-Ki-ras-24B was obtained from the plasmid pSW11-1(ATCC). This was then subcloned into the polylinker of a suitable expression vector e.g. plC 147. The Kras was obtained after expression in the E. coli strain, BL21. The expression and purification of c-KI-ras-24B and the vall2 variant in E. coli has also been reported by Lowe et al (Lowe P N et al. J. Biol. Chem. (1991) 266 1672-1678).
Incubations with enzyme contained 300 nM tritiated farnesyl pyrophosphate (DuPont/New England Nuclear), 120 nM ras-CVIM, 50 mM Tris HCl pH 8.0. 5 mM MgCl2, 10 μM ZnCl2, 5 mM dithiotheitol and compounds were added at appropriate concentrations in DMSO (3% final concentration in test and vehicle control). […] Precipitated protein was then collected onto glass fibre filter mats (B) using a Tomtec® cell harvester and tritiated label was measured in a Wallac® 1204 Betaplate scintillation counter.

Structure (SMILES): O=C(NCc1ccc(Cl)c(Cl)c1)c1ccc(C(=O)NC[C@@H]2C[C@H](S)CN2)nc1 (as salt: salt) [Example 13, 5-[N-(3,4-dichlorobenzyl)carbamoyl]-N-((2S,4S)-4-sulfanylpyrrolidin-2-yl-methyl)pyridine-2-carboxamide]
- melting point: 101 to 105 °C

Structure (SMILES): C=CCOC(=O)c1cc(NC(=O)[C@@H]2C[C@H](SC(C)=O)CN2C(=O)OCc2ccc([N+](=O)[O-])cc2)cc(C(=O)N(C)OC)c1 [Example 7, 5 {[(2S,4S),4-acetylsulfanyl-1-(4-nitro-benzyloxycarbonyl)-pyrrolidine-2-carbonyl]-amino}-3(N-methyl-methoxycarbamoyl)-benzoic acid allyl ester]
- IC50 [1]: ~500 nM
